{"source": "ChEMBL document CHEMBL3272268", "about": "(J Med Chem, 1978)", "target": "Serotonin (5-HT) receptor", "assay": "Competitive antagonist activity at 5-HT serotonin receptor in Sprague-Dawley rat stomach fundus model assessed as inhibition of 5-HT-induced contractile response", "data": [{"smiles": "COc1ccc(OC)c(CCCN(C)C)c1", "values": [{"measurement": "pA2", "result": 5.45}]}]}
